These results are taken from patent US20230303486A1, “CYCLOBUTYL-UREA DERIVATIVES” (Idorsia Pharmaceuticals Ltd, priority 2020, published 2023).

Assay [1] addresses T1, Kv7.2/7.3 (human KCNQ2 and KCNQ3 genes) in HEK293 cells (Homo sapiens, UniProt O43525+O43526).
T1 construct: host or cells: HEK293
The assay is described as follows: Kv7.2/3 assay (FLIPR potassium assay, agonist mode). Format: cell-based. The following applies: Kv7.2/7.3 activation, responses relative to Flupirtine. The method, then:
HEK293 cells were stably transfected with the appropriate ion channel cDNA(s) (human KCNQ2 and KCNQ3 genes). Cells were cultured in Dulbecco’s Modified Eagle Medium /Nutrient mixture F-12 (D-MEM/F-12) supplemented with 10% fetal bovine serum, 100 U/mL penicillin G sodium, 100 µg/mL streptomycin sulfate and selection antibiotics. FLIPR Test Procedure: For FLIPR assay, cells were plated in 384-well black clear-bottomed microtiter plates (BD Biocoat Poly-D-Lysine Multiwell Cell Culture Plate) at 15′000 to 30′000 cells per well. Cells were incubated at 37° C. overnight or until cells reached sufficient density in the wells (near confluent monolayer) to use in fluorescence assays. […] Assays were performed with the FLIPR potassium assay kit (Molecular Devices) according to the manufacturer’s instructions. Dye-loading: Growth media was removed and replaced with 20 µL of dye loading buffer for 60 min at room temperature. FLIPR Recording (agonist mode): Stock solutions of test compounds were prepared at a concentration of 33.3 mM in DMSO. 5 µL of 5x concentrated test, vehicle, or control compounds solutions prepared in the stimulation buffer (K^+-free buffer with 5 mM TI^+) were added to each well and fluorescence recording was continued for 5 min. The agonist effect (EC50 and % effect) of test or control compounds on Kv7 channels was determined as follows: Raw data was exported using Screenworks® 4.2 software and the fluorescence traces were analysed using Microsoft Excel (Microsoft Corp., Redmond, WA). The test compounds responses were expressed as % of maximum response of the control compound Flupirtine (Sigma-Aldrich), which was tested at concentrations ranging from 0.03 to 100 µM. Concentration-response data were fitted to a Hill equation. Non-linear least squares fits were made assuming a simple binding model. If appropriate, fits were weighted by the standard deviation. No assumptions about the fit parameters were made; the fit parameters were determined by the algorithm.

In assay [2] the test system is primary neuronal cultures from embryonic rat brains. The assay is described as follows: Rat oscillation assay (FLIPR, neuronal calcium oscillations). Format: cell-based. The following applies: Rattus norvegicus. How it is done:
This assay is a functional phenotypic assay designed to mimic epileptic seizures using primary neuronal cultures from embryonic rat brains, which form a functional neuronal network that generate synchronized intracellular calcium concentration oscillations when cultured at high density in 384-well plate. The epileptic phenotype is induced by incubating the neurons in magnesium-free assay buffer, that results in increased probability of NMDA receptor activation, leading to an increased frequency and amplitude of intracellular calcium oscillations. Once neurons are incubated with the calcium indicator dye Fluo-8 AM (Tebu-bio), neuronal calcium oscillations can be monitored in real time using FLIPR® Tetra (fluorometric plate reader, Molecular Devices). With these recordings, the effect of anti-epileptic drugs can be quantified. The anti-epileptic effect of compounds, which activate directly or indirectly the Kv7 channels can be modulated by the Kv7 channel blocker XE-991. The assay was performed as described previously (Pacico N, Mingorance-Le Meur A. New In Vitro Phenotypic Assay for Epilepsy: Fluorescent Measurement of Synchronized Neuronal Calcium Oscillations. PLoS ONE 9(1) 2014) with modifications described hereafter.
Animal care followed standard procedures in accordance with swiss institutional guidelines. Dissociated neuronal cultures were obtained from cerebral cortices of embryonic Wistar rats at embryonic stage E18 (Charles River). The uterine horns were removed by caesarian surgery from deeply anesthetized rats (Isofurane) and sacrificed by decapitation. The embryos were decapitated by closing forceps. The brains were isolated and dissected one by one in ice-cold PBS (Life Technologies) under optical control using a binocular. Meninges, olfactory bulbs, and basal ganglia were removed. Cortical hemispheres (still including the hippocampus) were cut in small pieces with tweezers and placed on ice in prechilled Hibernate-E medium (Life technology). The hemispheres were then incubated in 10 mL of Hibernate-E containing 15 U/mL papain (Worthington) for 25 min at 30° C. with gentle mixing every 10 min. Genomic DNA was then digested by prolonging the incubation during 10 min at 37° C. in presence of 4 U/mL rDNase I (Ambion). The obtained suspension was then centrifuged at 800 g for 5 min and the cell pellet was resuspended in 2 mL Hibernate-E and gently dissociated by pipetting up and down 10 times with a plastic Pasteur pipette resulting in a homogenous cell suspension. This suspension was immediately filtered through a 70 µm cell strainer (MACS® SmartStrainer, Miltenyi), collected in 10 mL Hibernate-E and centrifuged at 800 g for 5 min. The cell pellet was resuspended in Neurobasal medium, supplemented with 2% B-27, 0.5 mM Glutamax-I, 100 U/mL penicillin, 100 µg/mL streptomycin (Life Technologies) and diluted at the final concentration of 300′000 cells/mL. One day before plating the cells, 384-well plates were coated with 25 µL/well of 0.1 % poly-L-lysine solution (Sigma), incubated overnight at 37° C., washed two times with sterile distilled water and allowed to dry at room temperature for >2 h. The neurons were seeded at a density of 15′000 cells/well in 50 µL/well in a 384-well black, clear-bottomed plates (Corning) and subsequently maintained in an incubator at 37° C., 5% CO2 and 95% humidity for 8 to 10 days. After 3 and 7 days, 40% of media was renewed under sterile conditions.
Neurons seeded in the assay plates were washed with Hank’s balanced salt solution (HBSS) devoid of Ca^2+ and Mg^2+, supplemented with 20 mM HEPES (Life Technologies) and 2 mM CaCl2 (Sigma), pH 7.4 (hereafter called Assay buffer) using a Biotek EL406 plate washer. Neurons were loaded with 1 µM Fluo-8 AM in Assay buffer for 15 min at 37° C., 5% CO2. […]

Assay [3] deals with audiogenic generalized convulsive seizures in DBA/2J mice. As to the kind of experiment: Audiogenic seizure-sensitive mouse model of generalized convulsive seizures. It counts as in vivo. The following applies: challenge 1h. The method, then:
Compounds were formulated in a 10% polyethylene glycol 400 (PEG 400) / 90% aqueous solution of 0.5 % methylcellulose (MC 0.5%). Firstly drugs are dissolved in PEG 400 and then suspended in MC 0.5 % for oral gavage at Xmg/5 mL/kg (X see table).
• 1. Procedure: Following two days of acclimatisation, auditory seizures are induced in male juvenile DBA/2J mice (22-24 days old; Janvier Labs, France). Each mouse is placed individually in the exposure chamber, an hemispheric acrylic glass dome (diameter: 50 cm) within a sound-attenuated box. The soundattenuated box is equipped with two house lights and a camera system (Fire-I from Unibrain) in order to observe and record the behavioral seizure response. After 60 seconds of habituation, the stimulus, a mixed frequency tone of 15-20 kHz at 110 dB (SASLab Lite, Avisoft Bioacoustics), is played from a speaker that is placed on the top center of the dome. […] Seizures are classified as following: stage 0, normal behavior; stage 1, wild running; stage 2, generalized clonus; stage 3, tonic extension of the hind limbs. • 2. Compounds testing: Acute compound effects on audiogenic generalized convulsive seizures are evaluated in independent groups of 8-10 mice randomly assigned. Following oral administration of compound or vehicle, the maximum seizure stage during sound exposure is assessed. Compounds are given 1 hour before exposure to the stimulus. Each mouse is exposed to the auditory stimulus only once and euthanized afterwards by CO2 inhalation.

Assay [4] concerns Knock-in mice carrying a KCNQ2 or KCNQ3 variant. The note with it: knock-in mice with spontaneous seizures, reduced seizure thresholds; cited from earlier work.
Assay [5] has as its system patients with drug-resistant focal-onset seizures. The note with it: two phase three trials; cited from earlier work.
The test system of assay [6] is seizure activity in various rodent models. The note with it: acute seizure models, DBA2 mice, rat kindling model; cited from earlier work.
Setting [7] is: 20 min, 20 min after compound addition, AUC of fluorescence, read-out: FLIPR: IC50 [nM] 20 min.
[8] abbreviates: Cortical neurone, acute phase, ratio of AUC fluorescence before and after compound addition, rat cortical neurons, Mg-free buffer, read-out: FLIPR: IC50 [nM] acute.

pEC50: −log10 of the molar value. Read-outs that look alike come from different tables or passages of the source.

For `O=C(NCc1cccc(C(F)(F)F)c1)NC12CC(C(F)(F)F)(C1)C2` [Example 37, 1-(3-Trifluoromethyl-benzyl)-3-(3-trifluoromethyl-bicyclo[1.1.1]pent-1-yl)-urea], the pEC50 (in general, the negative decadic logarithm of the EC50, by convention in mol/L) in assay [1] is 7.52. Moreover, the results for the IC50 in assay [2] (setting [7]) and in assay [2] (setting [8]) were 32 nM and 26 nM, respectively. For the same compound, the “Seizure stage [% vs. vehicle]” value in assay [3] (15 mg/kg po) was -100 % vs. vehicle.

For the compound `O=C(NCc1cccc(OC(F)(F)F)c1)NC12CC(C(F)(F)F)(C1)C2` [Example 23, 1-(3-Trifluoromethoxy-Benzyl)-3-(3-Trifluoromethyl-Bicyclo[1.1.1]Pent-1-yl)-Urea], the IC50 (as a rule, the concentration that inhibits the measured activity by half) in assay [2] (setting [7]) was determined as 53 nM; in assay [2] (setting [8]), 75 nM. In assay [3] (30 mg/kg po), the “Seizure stage [% vs. vehicle]” value is -85 % vs. vehicle.

`O=C(NCc1cccc(OC(F)(F)F)c1)NC12CC(F)(C1)C2` [Example 24, 1-(3-Fluoro-bicyclo[1.1.1]pent-1-yl)-3-(3-trifluoromethoxybenzyl)-urea] had a pEC50 in assay [1] of 6.84. For the same compound, the IC50 in assay [2] (setting [7]) came to 198 nM; in assay [2] (setting [8]), 208 nM. The “Seizure stage [% vs. vehicle]” value in assay [3] (30 mg/kg po) was -100 % vs. vehicle.

For the compound `CCOC(=O)Nc1ccc(NCc2ccc(F)cc2)cc1N` [Retigabine/ezogabine], in assay [4], the seizures result is recorded as “attenuated”. In addition, the seizure frequency result in assay [5] is recorded as “significantly reduced seizure frequency”. For the same compound, the seizure activity result in assay [6] is on record as “reduces seizure activity”.
